Measurements as given in PMC8187479, “Sugar phosphate activation of the stress sensor eIF2B” (Nature Communications, 2021).
Read-outs that look alike come from different tables or passages of the source.

Biological target: T1, eIF2Bα (Homo sapiens, UniProt Q14232)
T1 construct: made in house; host or cells: E. coli BL21(DE3)
T1 sequence (Q14232 1-305): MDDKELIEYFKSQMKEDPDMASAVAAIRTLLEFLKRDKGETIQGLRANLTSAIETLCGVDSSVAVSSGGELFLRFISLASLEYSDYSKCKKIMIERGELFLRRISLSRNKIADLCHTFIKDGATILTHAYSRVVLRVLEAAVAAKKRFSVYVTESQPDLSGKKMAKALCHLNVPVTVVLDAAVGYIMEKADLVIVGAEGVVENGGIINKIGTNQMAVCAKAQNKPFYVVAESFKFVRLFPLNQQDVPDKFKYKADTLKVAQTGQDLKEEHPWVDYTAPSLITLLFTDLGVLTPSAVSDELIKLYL
Experiment: MIDAS (mass spectrometry integrated with equilibrium dialysis) metabolite binding screen
Method in brief: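 Hits called at Storey q < 0.1 on z-scores of PCA-corrected log2 fold change between protein and metabolite chambers, quantified by FIA-MS in triplicate.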

[1] = MIDAS screen, sheet eIF2Ba, metabolites screened in pools 1-4, p-value and q-value given

Row | log2(corrected fold change) [1] | Substance | other results
1 | 0.2943 | PIP3 | 
2 | 0.1451 | Phosphatidylglycerol | 

Continued, substance first:

Row | Substance | log2(corrected fold change) [1] | other results
3 | Orotidine 5-monophosphate |  | log2(corrected fold change): 0.07073
4 | PIP2 | 0.1728 | 
5 | Phosphatidic Acid | 0.1983 | 
6 | Phosphatidylcholine | -0.03855 | 
7 | Phosphatidylethanolamine | 0.09167 | 
8 | Phosphatidylserine | 0.1166 | 
9 | Stachyose |  | log2(corrected fold change) (MIDAS metabolite binding screen with eIF2Bα, sheet "eIF2Ba"): -0.02264
